What follows are compounds tested against T1, Syk (Homo sapiens, UniProt P43405) (assay: Syk HTRF assay). Conditions: IC50 activity level, read-out: Activity Level.
T1 construct: purchased Carna Biosciences
Assay type: biochemical
Method in brief: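 HTRF kinase assay in HEPES pH 7.6 buffer with MgCl2, DTT and Triton X100; start mix of 87.5 μM ATP and 80 nM biotinylated peptide, 1 h at room temperature. EDTA stop, then Eu-anti-phosphotyrosine/streptavidin-DyLight 647 detection, read as 665/615 nm emission ratio.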

| SMILES | IC50 [nM] |
| --- | --- |
| c1ccc(Nc2nc3cccc(-c4ccc5nc[nH]c5c4)n3n2)cc1 [Example 514, 5-(1H-benzo[d]imidazol-6-yl)-N-phenyl-[1,2,4]triazolo[1,5-a]pyridin-2-amine] | 0.005 to 250 |
| c1cc(NC2CCCNC2)n2nc(Nc3ccc4cn[nH]c4c3)nc2c1 (stereo in doubt) [Example 464, (S)-N^2-(1H-indazol-6-yl)-N^5-(piperidin-3-yl)-[1,2,4]triazolo[1,5-a]pyridine-2,5-diamine] | 0.005 to 250 |
| OC(c1cccc2nc(Nc3ccccc3)nn12)C1CCN(Cc2ccccc2)CC1 (stereo not drawn) [Example 491, (1-benzylpiperidin-4-yl)(2-(phenylamino)-[1,2,4]triazolo[1,5-a]pyridin-5-yl)methanol] | 1000 to 10000 |
| Fc1ccc(Nc2nc3cccc(N[C@H]4CCCNC4)n3n2)cc1 [Example 465, (S)-N^2-(4-fluorophenyl)-N^5-(piperidin-3-yl)-[1,2,4]triazolo[1,5-a]pyridine-2,5-diamine] | 0.005 to 250 |
| NCCOc1cc(-c2cccc3nc(Nc4ccccc4)nn23)ccn1 [Example 444, 5-(2-(2-aminoethoxy)pyridin-4-yl)-N-phenyl-[1,2,4]triazolo[1,5-a]pyridin-2-amine] | 250 to 500 |
| N[C@H]1CC[C@H](Nc2cccc3nc(Nc4ccccc4)nn23)CC1 (stereo in doubt) [Example 518, trans-N^5-(4-aminocyclohexyl)-N^2-phenyl-[1,2,4]triazolo[1,5-a]pyridine-2,5-diamine] | 500 to 1000 |

The next lines start with the values.

| IC50 [nM] | SMILES |
| --- | --- |
| 0.005 to 250 | CN(C)Cc1nc2cc(-c3cccc4nc(Nc5ccccc5)nn34)ccc2[nH]1 [Example 486, 5-(2-((dimethylamino)methyl)-1H-benzo[d]imidazol-5-yl)-N-phenyl-[1,2,4]triazolo[1,5-a]pyridin-2-amine] |
| 1000 to 10000 | CC(CN)Cc1cccc2nc(Nc3ccccc3)nn12 (stereo in doubt) [Example 459, (S)-5-(3-amino-2-methylpropyl)-N-phenyl-[1,2,4]triazolo[1,5-a]pyridin-2-amine] |
| 1000 to 10000 | OC1(Cc2cccc3nc(Nc4ccc(F)cc4)nn23)CCNCC1 [Example 430, 4-((2-(4-fluorophenylamino)-[1,2,4]triazolo[1,5-a]pyridin-5-yl)methyl)piperidin-4-ol] |
| 0.005 to 250 | CNC(=O)c1ccc(Nc2nc3cccc(-c4ccc5[nH]ncc5c4)n3n2)cc1 [Example 426, 4-(5-(1H-indazol-5-yl)-[1,2,4]triazolo[1,5-a]pyridin-2-ylamino)-N-methylbenzamide] |

Same assay, conditions: activity levels A-D, read-out: Activity Level (IC50 in the Syk HTRF assay)

| SMILES | IC50 [nM] |
| --- | --- |
| O[C@H]1CC[C@@H](Nc2cccc3nc(Nc4ccc5[nH]nnc5c4)nn23)CC1 [Example 237, cis-4-(2-(1H-benzo[d][1,2,3]triazolo-5-ylamino)-[1,2,4]triazolo[1,5-a]pyridin-5-ylamino)cyclohexanol] | 0.005 to 250 |
| O[C@@H]1CCCC1Nc1cccc2nc(Nc3ccc(C(F)(F)F)cc3)nn12 (stereo in doubt) [Example 377, (1R,2R)-2-(2-(4-(trifluoromethyl)phenylamino)-[1,2,4]triazolo[1,5-a]pyridin-5-ylamino)cyclopentanol] | 0.005 to 250 |
| CNC(=O)c1ccc(Nc2nc3cccc(Cc4cccc(O)c4)n3n2)cc1 [Example 292, 4-(5-(3-hydroxybenzyl)-[1,2,4]triazolo[1,5-a]pyridin-2-ylamino)-N-methylbenzamide] | 0.005 to 250 |
| O[C@H]1CC[C@@H](CNc2cccc3nc(Nc4ccc(C(F)(F)F)cc4)nn23)CC1 [Example 382, cis-4-((2-(4-(trifluoromethyl)phenylamino)-[1,2,4]triazolo[1,5-a]pyridin-5-ylamino)methyl)cyclohexanol] | 1000 to 10000 |
| CNC(=O)c1ccc(Nc2nc3cccc(CCC4CCNCC4)n3n2)cc1 [Example 254, N-methyl-4-(5-(2-(piperidin-4-yl)ethyl)-[1,2,4]triazolo[1,5-a]pyridin-2-ylamino)benzamide] | 500 to 1000 |
| OCCOc1cccc2nc(Nc3ccc(C(F)(F)F)cc3)nn12 [Example 315, 2-(2-(4-(trifluoromethyl)phenylamino)-[1,2,4]triazolo[1,5-a]pyridin-5-yloxy)ethanol] | 1000 to 10000 |
| O=C1CN(Cc2cccc3nc(Nc4ccc(N5CCC(O)CC5)nc4)nn23)CCN1 [Example 221, 4-((2-(6-(4-hydroxypiperidin-1-yl)pyridin-3-ylamino)-[1,2,4]triazolo[1,5-a]pyridin-5-yl)methyl)piperazin-2-one] | 500 to 1000 |
| O=C1c2cc(Nc3nc4cccc(N[C@H]5CC[C@@H](O)CC5)n4n3)ccc2CN1CCO [Example 206, cis-6-(5-(4-hydroxycyclohexylamino)-[1,2,4]triazolo[1,5-a]pyridin-2-ylamino)-2-(2-hydroxyethyl)isoindolin-1-one] | 1000 to 10000 |
| Cc1nn(C)c2cc(Nc3nc4cccc(N[C@H]5CC[C@@H](O)CC5)n4n3)ccc12 [Example 218, cis-4-(2-(1,3-dimethyl-1H-indazol-6-ylamino)-[1,2,4]triazolo[1,5-a]pyridin-5-ylamino)cyclohexanol] | 0.005 to 250 |
| Cc1ccc(Nc2nc3cccc(-c4ccc5nc(CO)[nH]c5c4)n3n2)cn1 [Example 285, (6-(2-(6-methylpyridin-3-ylamino)-[1,2,4]triazolo[1,5-a]pyridin-5-yl)-1H-benzo[d]imidazol-2-yl)methanol] | 0.005 to 250 |

More lines, now with the values ahead:

| IC50 [nM] | SMILES |
| --- | --- |
| 0.005 to 250 | O[C@H]1CC[C@@H](Nc2cccc3nc(Nc4cccc(F)c4)nn23)CC1 [Example 355, cis-4-(2-(3-fluorophenylamino)-[1,2,4]triazolo[1,5-a]pyridin-5-ylamino)cyclohexanol] |
| 500 to 1000 | O=C1CCN(Cc2cccc3nc(Nc4ccc(C(F)(F)F)cc4)nn23)CCN1 [Example 269, 1-((2-(4-(trifluoromethyl)phenylamino)-[1,2,4]triazolo[1,5-a]pyridin-5-yl)methyl)-1,4-diazepan-5-one] |
| 1000 to 10000 | O[C@H]1CCCC[C@@H]1Nc1cccc2nc(Nc3ccc(C(F)(F)F)cc3)nn12 [Example 334, (1S,2S)-2-(2-(4-(trifluoromethyl)phenylamino)-[1,2,4]triazolo[1,5-a]pyridin-5-ylamino)cyclohexanol] |
| 1000 to 10000 | FC(F)(F)c1ccc(Nc2nc3cccc(N4CCCC4)n3n2)cc1 [Example 307, 5-(pyrrolidin-1-yl)-N-(4-(trifluoromethyl)phenyl)-[1,2,4]triazolo[1,5-a]pyridin-2-amine] |
| 1000 to 10000 | OCC1CCN(Cc2cccc3nc(Nc4ccc(C(F)(F)F)cc4)nn23)C1 (stereo in doubt) [Example 323, (R)-(1-((2-(4-(trifluoromethyl)phenylamino)-[1,2,4]triazolo[1,5-a]pyridin-5-yl)methyl)pyrrolidin-3-yl)methanol] |
| 0.005 to 250 | CC(c1cc[nH]c(=O)c1)c1cccc2nc(Nc3ccc(C(F)(F)F)cc3)nn12 (stereo not drawn) [Example 211, 4-(1-(2-(4-(trifluoromethyl)phenylamino)-[1,2,4]triazolo[1,5-a]pyridin-5-yl)ethyl)pyridin-2(1H)-one] |
| 0.005 to 250 | Cc1cc(Nc2nc3cccc(Cc4ccnc(O)c4)n3n2)ccc1F [Example 219, 4-((2-(4-fluoro-3-methylphenylamino)-[1,2,4]triazolo[1,5-a]pyridin-5-yl)methyl)pyridin-2-ol] |
| 1000 to 10000 | O[C@H]1CCCN(Cc2cccc3nc(Nc4ccc(C(F)(F)F)cc4)nn23)C1 [Example 300, (S)-1-((2-(4-(trifluoromethyl)phenylamino)-[1,2,4]triazolo[1,5-a]pyridin-5-yl)methyl)piperidin-3-ol] |
| 0.005 to 250 | N#Cc1ccc(Nc2nc3cccc(N[C@H]4CC[C@@H](O)CC4)n3n2)cc1 [Example 363, 4-(5-(cis-4-hydroxycyclohexylamino)-[1,2,4]triazolo[1,5-a]pyridin-2-ylamino)benzonitrile] |

Same assay, conditions: read-out: Activity Level (Syk HTRF assay IC50)

| SMILES | IC50 [nM] |
| --- | --- |
| CC1(C)C(=O)Nc2cc(Nc3nc4cccc(CN5CCNC(=O)C5)n4n3)ccc21 [Example 172, 3,3-dimethyl-6-(5-((3-oxopiperazin-1-yl)methyl)-[1,2,4]triazolo[1,5-a]pyridin-2-ylamino)indolin-2-one] | 0.005 to 250 |
| Cc1n[nH]c2cc(Nc3nc4cccc(CN5CCCC(F)(F)C5)n4n3)ccc12 [Example 184, 5-((3,3-difluoropiperidin-1-yl)methyl)-N-(3-methyl-1H-indazol-6-yl)-[1,2,4]triazolo[1,5-a]pyridin-2-amine] | 0.005 to 250 |
| CNC(=O)c1ccc(Nc2nc3cccc(-c4cccc(O)c4)n3n2)c(OC)c1 [compound 15, 4-(5-(3-hydroxyphenyl)-[1,2,4]triazolo[1,5-a]pyridin-2-ylamino)-3-methoxy-N-methylbenzamide] | 500 to 1000 |
| COCCn1nc(C)c2ccc(Nc3nc4cccc(N[C@H]5CC[C@@H](O)CC5)n4n3)cc21 [Example 194, cis-4-(2-(1-(2-methoxyethyl)-3-methyl-1H-indazol-6-ylamino)-[1,2,4]triazolo[1,5-a]pyridin-5-ylamino)cyclohexanol] | 250 to 500 |
| CC1(C)NC(=O)c2cc(Nc3nc4cccc(N[C@H]5CC[C@@H](O)CC5)n4n3)ccc21 [compound 120, cis-6-(5-(4-hydroxycyclohexylamino)-[1,2,4]triazolo[1,5-a]pyridin-2-ylamino)-3,3-dimethylisoindolin-1-one] | 250 to 500 |
| CN1C(=O)C(C)(C)c2ccc(Nc3nc4cccc(N[C@H]5CC[C@](C)(O)CC5)n4n3)cc21 [compound 110] | 0.005 to 250 |
| CN1Cc2cc(Nc3nc4cccc(N[C@H]5CC[C@@H](O)CC5)n4n3)ccc2C1=O [Example 135, cis-5-(5-(4-hydroxycyclohexylamino)-[1,2,4]triazolo[1,5-a]pyridin-2-ylamino)-2-methylisoindolin-1-one] | 0.005 to 250 |
| Cc1n[nH]c2ccc(Nc3nc4cccc(NC5CCOCC5)n4n3)cc12 [compound 117] | 500 to 1000 |

More lines, now with the values ahead:

| IC50 [nM] | SMILES |
| --- | --- |
| 0.005 to 250 | Cc1cc(Nc2nc3cccc(CC4CCOCC4)n3n2)cc2c1C(C)(C)C(=O)N2 [compound 126] |
| 1000 to 10000 | N#Cc1cc(Nc2nc3cccc(-c4ccccc4)n3n2)ccn1 [compound 52] |

From US8299056B2 (Signal Pharmaceuticals, LLC, priority 2008, dated 2012)
